Source: patent US8389744B1, “TTPO (5 6,7-trithiapentacene-13-one) and its derivatives: a new class of thermally stable, photooxidatively resistant organic semiconductors” (University of New Hampshire, priority 2011, dated 2013)

Columns and labels:
Thermal stability = assay type: physicochemical; conditions: stable up to and including this temperature
[1] = Solubility in organic solvents; assay type: physicochemical

thermal stability (Thermal stability): ≤ 450 °C | solubility [1]: soluble in a variety of organic solvents
Structure (SMILES): O=C1c2cc3ccccc3c3c2C2=S(S3)Sc3c2c1cc1ccccc31 [TTPO, 5,6,7-Trithiapentacene-13-one]
